The target in this experiment is T1, GBA2 (Homo sapiens, UniProt Q9HCG7).
T1 sequence (Q9HCG7 1-927): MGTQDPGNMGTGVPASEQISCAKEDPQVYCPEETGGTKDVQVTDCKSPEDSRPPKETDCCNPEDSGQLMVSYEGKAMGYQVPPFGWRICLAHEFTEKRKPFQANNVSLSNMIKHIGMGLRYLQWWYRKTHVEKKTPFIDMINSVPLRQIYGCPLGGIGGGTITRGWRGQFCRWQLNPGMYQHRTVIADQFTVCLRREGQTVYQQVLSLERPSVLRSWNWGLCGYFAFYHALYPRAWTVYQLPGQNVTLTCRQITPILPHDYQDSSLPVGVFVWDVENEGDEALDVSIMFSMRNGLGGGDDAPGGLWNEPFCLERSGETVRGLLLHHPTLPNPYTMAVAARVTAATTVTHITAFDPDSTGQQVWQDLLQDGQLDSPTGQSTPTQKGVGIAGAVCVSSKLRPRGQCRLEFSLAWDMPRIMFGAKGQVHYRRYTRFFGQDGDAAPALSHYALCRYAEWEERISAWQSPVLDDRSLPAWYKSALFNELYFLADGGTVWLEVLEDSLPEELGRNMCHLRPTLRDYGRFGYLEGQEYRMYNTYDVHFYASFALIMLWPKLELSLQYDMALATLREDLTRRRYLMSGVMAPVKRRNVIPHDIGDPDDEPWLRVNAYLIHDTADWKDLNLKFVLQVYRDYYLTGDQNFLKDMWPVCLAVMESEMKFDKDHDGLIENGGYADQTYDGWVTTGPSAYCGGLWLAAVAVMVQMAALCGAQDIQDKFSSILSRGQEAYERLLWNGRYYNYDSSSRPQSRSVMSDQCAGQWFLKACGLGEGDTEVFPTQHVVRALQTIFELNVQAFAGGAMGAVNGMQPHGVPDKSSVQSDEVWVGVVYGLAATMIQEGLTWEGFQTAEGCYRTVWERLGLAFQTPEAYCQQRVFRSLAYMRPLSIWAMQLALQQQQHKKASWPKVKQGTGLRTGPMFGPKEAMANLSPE
Nature of the experiment: Determination of IC50 values for inhibition of GBA2 in cell lysate. Particulars: cellular homogenate of HEK293T cells overexpressing human GBA2, 250 μM 4-methylumbelliferone-β-D glucopyranoside, pH 5.5, 37° C., GCase inhibitor present; read-out: GBA2 IC50. The experiment is classed as biochemical. Also on record: host or cells: HEK293T (lentiviral transduction, puromycin selection); used as cellular homogenate. The text has this:
Assay for Determination of IC50 Values for Inhibition of GBA2 in Cell Lysate
Stable GBA2-expressing HEK293T cells were generated as follows. The PCR-amplified human GBA2 (GBA2 nucleotide accession number BC011363) using the following primers: Sense 5′---CGCAAATGGGCGGTAGGCGTG (SEQ ID NO:2)---3′ and antisense 5′---TAGTCAGCCATGGGGCGGAGA (SEQ ID NO:3)---3′) was cloned into pLenti-GIII-CMV by ABM Inc. The correctness of the construct was verified by sequencing. Lentivirus particles containing GBA2 in the pLenti-GIII-CMV plasmid were prepared using a third Generation Virus Packaging Mix (ABM cat #LV053-G074) in HEK293T cells and supplied as a virus particle suspension. The virus suspension was used for infection of HEK293T cells. Cell populations stably expressing human GBA2 were selected using puromycin for several weeks as determined by activity assays and western blot.
Various concentrations of test compounds were prepared in DMSO and then diluted into buffer consisting of 100 mM citric acid, 200 mM disodium phosphate with 1% v/v C10E6, pH 5.5. Cellular homogenates (0.25 mg/mL) of the stable HEK293T-overexpressing GBA2 cell line were preincubated for 10 min on ice with an inhibitor of GCase (20 μM (6R,7R,8S)-8-ethyl-4-azaspiro[2.5]octane-6,7-diol). The reaction solution consisted of 20 μL of 750 μM 4-methylumbelliferone-β-D glucopyranoside in 5% DMSO in the same buffer, 20 μL of GBA2-cellular homogenate pre-treated with (6R,7R,8S)-8-ethyl-4-azaspiro[2.5]octane-6,7-diol and 20 μL of various concentrations of test compound in 10% DMSO in the same buffer. The final concentrations in the reaction were 0.083 mg/mL GBA2-cellular homogenate, 250 μM 4-methylumbelliferone-β-D glucopyranoside, and various concentrations of inhibitor. The inhibitor and GBA2-cellular homogenate were preincubated together for 5 min at 37° C. The reaction was initiated by addition of substrate and allowed to proceed for 20 min at 37° C. to assess GBA2 activity. Reactions were stopped by the addition of an equal volume (60 μL) of 0.5 M NaOH, 0.3 M glycine, pH 10.5. Fluorescence was measured on a Biotek Synergy H4 plate reader at wavelengths of 365 nm for excitation and 450 nm for emission. Incubations without added enzyme or added inhibitors were used to define no enzyme activity and maximal enzyme activity, respectively. IC50 values were determined by fitting the data to a log[inhibitor concentration] versus response curve using GraphPad Prism. IC50 values were calculated as the concentration of inhibitor required to inhibit GBA2 activity by 50%.

By IC50 is commonly meant the concentration that gives 50% inhibition. On to `C[C@@H]1[C@@H](O)[C@H](O)[C@@H](O)CN1CC1CCCCC1` [Example 1, (2R,3R,4R,5S)-1-(cyclohexylmethyl)-2-methylpiperidine-3,4,5-triol], for which the IC50 was in the range of 100 to 1000 nM.
With `C[C@@H]1[C@@H](O)[C@H](O)[C@@H](O)CN1CC1CCC(C)(C)CC1` [Example 2, (2R,3R,4R,5S)-1-((4,4-dimethylcyclohexyl)methyl)-2-methylpiperidine-3,4,5-triol], the IC50 is 100 to 1000 nM.
For `C[C@@H]1[C@@H](O)[C@H](O)[C@@H](O)CN1CC1CCC(F)(F)CC1` [Example 3, (2R,3R,4R,5S)-1-((4,4-difluorocyclohexyl)methyl)-2-methylpiperidine-3,4,5-triol] the value was 1000 to 25000 nM.
As for `C[C@@H]1[C@@H](O)[C@H](O)[C@@H](O)CN1CC1CCC(Cl)(Cl)CC1` [Example 4, (2R,3R,4R,5S)-1-((4,4-dichlorocyclohexyl)methyl)-2-methylpiperidine-3,4,5-triol], the IC50 is less than 100 nM.
In the case of `CCC1CCC(CN2C[C@H](O)[C@@H](O)[C@H](O)[C@H]2C)CC1` (stereo partly drawn) [Example 5, (2R,3R,4R,5S)-1-((4-ethylcyclohexyl)methyl)-2-methylpiperidine-3,4,5-triol] it was less than 100 nM.
In the case of `C=C[C@H]1CC[C@@H](CN2C[C@H](O)[C@@H](O)[C@H](O)[C@H]2C)CC1` [Example 6, (2R,3R,4R,5S)-2-methyl-1-(((1s,4S)-4-vinylcyclohexyl)methyl)piperidine-3,4,5-triol] it was less than 100 nM.
For `CC(C)[C@H]1CC[C@H](CN2C[C@H](O)[C@@H](O)[C@H](O)[C@H]2C)CC1` [Example 8, (2R,3R,4R,5S)-1-(((1r,4R)-4-isopropylcyclohexyl)methyl)-2-methylpiperidine-3,4,5-triol] the value was less than 100 nM; for `C[C@@H]1[C@@H](O)[C@H](O)[C@@H](O)CN1C[C@H]1CC[C@H](C(C)(C)C)CC1` [Example 10, (2R,3R,4R,5S)-1-(((1r,4R)-4-(tert-butyl)cyclohexyl)methyl)-2-methylpiperidine-3,4,5-triol], less than 100 nM.
Turning to `C[C@@H]1[C@@H](O)[C@H](O)[C@@H](O)CN1C[C@H]1CC[C@H](C(C)(C)F)CC1` [Example 14, (2R,3R,4R,5S)-1-(((1r,4R)-4-(2-fluoropropan-2-yl)cyclohexyl)methyl)-2-methylpiperidine-3,4,5-triol], the IC50 was less than 100 nM.
On to `C[C@@H]1[C@@H](O)[C@H](O)[C@@H](O)CN1C[C@H]1CCC[C@H](C(F)(F)F)C1` [Example 15, (2R,3R,4R,5S)-2-methyl-1-(((trans)-3-(trifluoromethyl)cyclohexyl)methyl)piperidine-3,4,5-triol], for which the IC50 was less than 100 nM.
For `C[C@@H]1[C@@H](O)[C@H](O)[C@@H](O)CN1C[C@H]1CCC[C@@H](C(F)(F)F)C1` [Example 16, (2R,3R,4R,5S)-2-methyl-1-(((cis)-3-(trifluoromethyl)cyclohexyl)methyl)piperidine-3,4,5-triol] the value was 100 to 1000 nM.
In the case of `CO[C@H]1CC[C@@H](CN2C[C@H](O)[C@@H](O)[C@H](O)[C@H]2C)CC1` [Example 17, (2R,3R,4R,5S)-1-(((1s,4S)-4-methoxycyclohexyl)methyl)-2-methylpiperidine-3,4,5-triol] it was 1000 to 25000 nM; in that of `CO[C@H]1CC[C@H](CN2C[C@H](O)[C@@H](O)[C@H](O)[C@H]2C)CC1` [Example 18, (2R,3R,4R,5S)-1-(((1r,4R)-4-methoxycyclohexyl)methyl)-2-methylpiperidine-3,4,5-triol], 1000 to 25000 nM.
With `COCC1CCC(CN2C[C@H](O)[C@@H](O)[C@H](O)[C@H]2C)CC1` (stereo partly drawn) [Example 19, (2R,3R,4R,5S)-1-((4-(methoxymethyl)cyclohexyl)methyl)-2-methylpiperidine-3,4,5-triol], the IC50 lay in the range of 100 to 1000 nM.
For `C[C@@H]1[C@@H](O)[C@H](O)[C@@H](O)CN1C[C@H]1CC[C@H](C2CC2)CC1` [Example 21, (2R,3R,4R,5S)-1-(((1r,4R)-4-cyclopropylcyclohexyl)methyl)-2-methylpiperidine-3,4,5-triol] the value was less than 100 nM; for `C[C@@H]1[C@@H](O)[C@H](O)[C@@H](O)CN1CC1CCC(c2ccccc2)CC1` (stereo partly drawn) [Example 22, (2R,3R,4R,5S)-2-methyl-1-((4-phenylcyclohexyl)methyl)piperidine-3,4,5-triol], less than 100 nM; for `C[C@@H]1[C@@H](O)[C@H](O)[C@@H](O)CN1CC1CCC2(CC1)CC2` [Example 23, (2R,3R,4R,5S)-2-methyl-1-(spiro[2.5]octan-6-ylmethyl)piperidine-3,4,5-triol], 100 to 1000 nM.
In the case of `C[C@@H]1[C@@H](O)[C@H](O)[C@@H](O)CN1CC1CCC2(CCCC2)CC1` [Example 25, (2R,3R,4R,5S)-2-methyl-1-(spiro[4.5]decan-8-ylmethyl)piperidine-3,4,5-triol] it was less than 100 nM; in that of `C[C@@H]1[C@@H](O)[C@H](O)[C@@H](O)CN1C[C@H]1CC[C@]2(CC1)COC(C)(C)C2` [Example 26, (2R,3R,4R,5S)-1-(((5S,8s)-3,3-dimethyl-2-oxaspiro[4.5]decan-8-yl)methyl)-2-methylpiperidine-3,4,5-triol], 100 to 1000 nM; in that of `C[C@@H]1[C@@H](O)[C@H](O)[C@@H](O)CN1CC1CCc2ccccc2C1` (stereo partly drawn) [Example 27, (2R,3R,4R,5S)-2-methyl-1-((1,2,3,4-tetrahydronaphthalen-2-yl)methyl)piperidine-3,4,5-triol], less than 100 nM.
As for `C[C@@H]1[C@@H](O)[C@H](O)[C@@H](O)CN1CC1Cc2ccccc2C1` [Example 28, (2R,3R,4R,5S)-1-((2,3-dihydro-1H-inden-2-yl)methyl)-2-methylpiperidine-3,4,5-triol], the half-inhibitory concentration (IC50) was less than 100 nM.
For `C[C@@H]1[C@@H](O)[C@H](O)[C@@H](O)CN1CCC1CCCCC1` [Example 29, (2R,3R,4R,5S)-1-(2-cyclohexylethyl)-2-methylpiperidine-3,4,5-triol] the value was 100 to 1000 nM; for `C[C@@H]1[C@@H](O)[C@H](O)[C@@H](O)CN1CCC1CCC(F)(F)CC1` [Example 30, (2R,3R,4R,5S)-1-(2-(4,4-difluorocyclohexyl)ethyl)-2-methylpiperidine-3,4,5-triol], 100 to 1000 nM.
For `C[C@@H]1[C@@H](O)[C@H](O)[C@@H](O)CN1CC[C@H]1CC[C@@H](C(F)(F)F)CC1` [Example 31, (2R,3R,4R,5S)-2-methyl-1-(2-((1s,4S)-4-(trifluoromethyl)cyclohexyl)ethyl)piperidine-3,4,5-triol], the IC50 was less than 100 nM.
Regarding `C[C@@H]1[C@@H](O)[C@H](O)[C@@H](O)CN1CC[C@H]1CC[C@H](C(F)(F)F)CC1` [Example 32, (2R,3R,4R,5S)-2-methyl-1-(2-((1r,4R)-4-(trifluoromethyl)cyclohexyl)ethyl)piperidine-3,4,5-triol], the IC50 was less than 100 nM.

The values are drawn from US12612380B2, “Non-lysosomal glucosylceramidase inhibitors and uses thereof” (ALECTOS THERAPEUTICS INC., priority 2019, dated 2026).
